Source: ChEMBL document CHEMBL2146450, “DNA Sequence Preference and Adduct Orientation of Pyrrolo[2,1-c][1,4]benzodiazepine Antitumor Agents” (ACS Med Chem Lett, 2010)

How the values were obtained:
Assay type in all cases: nucleic-acid assay
Nucleic Acid [1] = test: Binding affinity to 5'-TATA-TGT-TTT-ACA-TATA at 200 uM by HPLC/MS analysis
Nucleic Acid [2] = test: Binding affinity to 5'-TATA-TGA-TTT-TCA-TATA at 200 uM by HPLC/MS analysis
Nucleic Acid [3] = test: Binding affinity to 5'-TATA-AGA-TTT-TCT-TATA at 200 uM by HPLC/MS analysis
Nucleic Acid [4] = test: Binding affinity to 5'-TGT-TATA-TTT-TATA-ACA at 200 uM by HPLC/MS analysis
Nucleic Acid [5] = test: Binding affinity to 5'-TATA-AGT-TTT-ACT-TATA at 200 uM by HPLC/MS analysis
Nucleic Acid [6] = test: Binding affinity to 5'-TGA-TATA-TTT-TATA-TCA at 200 uM by HPLC/MS analysis
Nucleic Acid [7] = test: Binding affinity to 5'-AGT-TATA-TTT-TATA-ACT at 200 uM by HPLC/MS analysis
Nucleic Acid [8] = test: Binding affinity to 5'-AGA-TATA-TTT-TATA-TCT at 200 uM by HPLC/MS analysis

Compound: COC(=O)c1cc(NC(=O)c2cc(NC(=O)CCCOc3cc4c(cc3OC)C(=O)N3CCC[C@H]3C=N4)cn2C)cn1C
- K (Nucleic Acid [1]): > 0.506 µM/min
- K (Nucleic Acid [2]): > 0.364 µM/min
- K (Nucleic Acid [3]): 0.091 µM/min
- K (Nucleic Acid [4]): > 0.808 µM/min
- K (Nucleic Acid [5]): 0.124 µM/min
- K (Nucleic Acid [6]): 0.196 µM/min
- K (Nucleic Acid [7]): 0.096 µM/min
- K (Nucleic Acid [8]): 0.132 µM/min
